Test [1] has as its system brain myelination (myelin water fraction). Nature of the test: Cross-sectional correlation of infant formula nutrient content with brain myelination (myelin water fraction, mcDESPOT MRI). In kind it is in vivo, human. The settings on record: children up to 5 years fed infant formulas. The procedure:
MRI (Magnetic Resonance Imaging): MRI brain scans of infants and children between 0 and 5 years were acquired using a white matter imaging technique. This technique provides a quantitative measure, the Myelin Water Fraction (MWF), which is a surrogate marker of myelin content in the brain. When mapped as a function of time across early childhood, myelination trajectories can be generated.
Infant formula composition: six infant formulas fed to infants participating in a study were analyzed for their composition/level of myelin-relevant nutrients.
Each infant was scanned using the mcDESPOT (multicomponent Driven Equilibrium Single Pulse Observation of T1 and T2) white matter imaging technique Deoni et al. (Magn. Reson. Med. 2008, 60:1372-1387), which provides a quantitative measure of the myelin water fraction (MWF)—a measure of myelin content—at each point throughout the brain. All infants were scanned during natural (i.e. non-sedated) sleep using acoustically-muffled mcDESPOT imaging protocols. Total imaging times ranged from 19 minutes for the youngest toddlers to 24 minutes for the older 4 year-old children.
Following image alignment, non-brain signal removal, and correction for main and transmit magnetic field (B0 and B1) inhomogeneities, a three-pool signal model (comprising the myelin-associated water; intra-extra axonal water; and a non-exchanging free-water pool) was fit to the mcDESPOT data to derive voxel-wise MWF maps.
Each child's map was then non-linearly aligned to a study specific template. White matter masks, corresponding to 5 bilateral regions (frontal, temporal, occipital, parietal, and cerebellar WM) as well as the body, genu, and splenium of the corpus callosum were created from common databases, registered to the common template, and superimposed onto each child's MWF map. Mean values for each region were then determined for each child and used for subsequent developmental analysis and trajectory modeling.
From the cohort described above, children up to 5 years of age that were fed different infant formulas during infancy were included in a large correlation analysis to examine the relationship between formula nutrient composition and brain myelination. The 6 most frequently used formulas in that cohort were analyzed for their nutritional composition. A single general linear model (GLM) was constructed that modeled all quantified nutrients and child age.
Spearman rank correlations were then calculated between the nutrient content and myelin content value (adjusted for child age) at each image voxel, or point within the brain. Significance was defined as p<0.05 corrected for type 1 error using a cluster based correction approach. An association or trend was defined as p<0.15. […] To reduce the number of nutritional components in the model, we examined the inter-nutritional correlation. Using a conservative threshold of 0.9, we excluded nutritional components that were highly correlated with each other across the various formulas.

Test [2] has as its system neural progenitor cell (NPCs) from E14 mouse neocortex. Nature of the test: Differentiation assay: quantification of neuronal and glial marker expression in monolayer NPC culture. It counts as cell-based. The settings on record: 9 d culture; for astrocyte cell density (astrocytic): GFAP normalized to DAPI. As to the method: Generation of neural progenitor cell (NPCs) libraries: dissociation of E14 mouse neocortex E14 pup brains were harvested and placed in ice cold DPBS(1×)+10% Pen/Strep, then they were dissected using a dissecting microscope. From each pup, one brain hemisphere was placed in 2 ml of Neurobasal media/10% P/S/10× Hepes and another brain hemisphere was placed in another tube. The tissue from each tube was aseptically and manually dissociate into single cells, neurobasal complete medium was added and centrifuged at […] for 5 min. The tissue was then re-suspended in neurobasal complete media with GF and placed in a corning suspension culture dish 100 mm×20 mm (#430591). […] Plating Cells in 24 Well Plate for Monolayer Differentiation or EdU Incorporation Assays 24 well glass bottom plates (Mat Tek […]-1.0-13-F Case, glass bottom 24 well plates) were coated with poly-L-ornithin (Sigma P4957) and Fibronection (Sigma F1141) before use in the assay below. Cells were plated (10,000 cells per well) in Complete media with GF for 24 hours (500 ul per well). […] Differentiation Assay: Quantification of Neuronal, Glial and NPC Marker Expression After 24 hours, it was ensured that cells were attached to the plate, then the medium was carefully removed. […] Note: medium contains no GF. […] The cells were culture for 9 d in media plus 2% Nu Serum, the medium was changed every 2nd day. For fixation and subsequent immunohistochemical analysis the medium was removed, the cells were rinsed once with 1×PBS for 5 min, and fixed with 4% PFA in 1×PBS for 15 min at 4° C. The cells were then washed twice with 1×PBS for 5 min, left in 1×PBS, wrapped in foil and left overnight at 4C, or they were immediately primary antibody staining was carried out. PBS was removed and enough AB staining solution (1% Goat serum, 1×PBS, and 0.1% triton X) was added to cover the bottom, the block was kept at room temp for 1 hour. Primary antibody dilutions were made in appropriate amount of AB staining solution, 250 ul per well (the antibodies were only kept out on ice for a short time, mouse anti-MAP2 or TUJ1 1:500 (neuron marker), rabbit anti-GFAP (glial marker) 1:1000, chicken anti-Nestin CFP (EGFP antibody (progenitor cell marker)) 1:1000. AB staining solution was removed and a solution of primary antibodies was added to each chamber. The cells were wrapped in foil and kept overnight 4° C. The cells were then washed with 400 ul of AB staining solution for 5 min once to remove primary antibodies. Secondary antibody solutions were made (enough for 250 ul of each chamber) (Goat anti-mouse alexa 488 1:2000, anti-rabbit Cy3 (1:500), anti-chicken alexa 647 1:500, and 1:5000 Dapi). The cells were incubated at room temp for 1 hour in the dark and washed 2 time in AB staining solution for five mins. They were then kept at 4° C. or Imaged using a GE Cytell imager or LSM 710, Zeiss confocal microscope and analyze with ImageJ software (National Institutes of Health). Microtubule-Associated Protein 2 (MAP2), Neuronal Beta-Tubulin III(TuJ1), Glial Fibrillary Acidic Protein (GFAP), and Nestin CFP (EGFP Antibody). Each marker expression was measured on collected images (integrated density measure in ImageJ) and normalized to DAPI fluorescence, marking all nuclei (integrated density measure). Octanoic Acid were labeled with neuronal beta-tubulin III (TuJ1), subsequent compounds were labeled with Microtubule-associated protein 2 (MAP2).

For the molecule `CCCCC/C=C\C/C=C\C/C=C\C/C=C\CCCC(=O)O` [AA, arachidonic acid], the “association of nutrient with myelination (myelin water fraction) over time in the brain” value in test [1] is given as “an association with myelination (myelin water fraction) was observed over time in the brain”. In the case of `CCCCCCCC(=O)O` [Octanoic acid, Octanoic Acid], the entries for the “astrocyte cell density (astrocytic)” value in test [2] (HighOA (Dose 3: 250 μM)), in test [2] (lowOA (Dose 1: 10 μM)) and in test [2] (medOA (Dose 2: 50 μM)) were 7.9, 3.7 and 6.1, respectively. The “Neuronal Cell density (Neuronal)” value in test [2] (HighOA (Dose 3: 250 μM), TuJ1 normalized to DAPI) is on record as 1.7; in test [2] (lowOA (Dose 1: 10 μM), TuJ1 normalized to DAPI), 1.2; in test [2] (medOA (Dose 2: 50 μM), TuJ1 normalized to DAPI), 1.8.

Regarding `CCCCCCCCCCCCCCCCCC(=O)O` [Stearic acid, Stearic Acid], the figures for the “astrocyte cell density (astrocytic)” value in test [2] (highSA (Dose 3: 10 μM)), in test [2] (lowSA (Dose 1: 100 nM)) and in test [2] (medSA (Dose 2: 1 μm)) were 0.85, 0.68 and 0.81, respectively. Further, the “Neuronal Cell density (Neuronal)” value in test [2] (highSA (Dose 3: 10 μM), MAP2 normalized to DAPI) is listed as 0.64; in test [2] (lowSA (Dose 1: 100 nM), MAP2 normalized to DAPI), 0.54; in test [2] (medSA (Dose 2: 1 μm), MAP2 normalized to DAPI), 0.66. As for `[Ca+2]` [calcium], the “association of nutrient with myelination (myelin water fraction) over time in the brain” value in test [1] was “an association with myelination (myelin water fraction) was observed over time in the brain”. For `[Mg+2]` [magnesium], the “association of nutrient with myelination (myelin water fraction) over time in the brain” value in test [1] is recorded as “an association with myelination (myelin water fraction) was observed over time in the brain”. On the same count and under the same terms, with `[P]` [phosphorus] the entry was “an association with myelination (myelin water fraction) was observed over time in the brain”. Still for that read-out and setting: the same measure for `[Zn]` [zinc]: “an association with myelination (myelin water fraction) was observed over time in the brain”; for iron: “an association with myelination (myelin water fraction) was observed over time in the brain”.

Consider phosphatidylcholine, for which, in test [1], the “association of nutrient with myelination (myelin water fraction) over time in the brain” value is listed as “an association with myelination (myelin water fraction) was observed over time in the brain”. On the same count and under the same terms, with phosphatidylinositol the entry was “an association with myelination (myelin water fraction) was observed over time in the brain”; with vitamin B12, “an association with myelination (myelin water fraction) was observed over time in the brain”.

Source of the values: US11337449B2, “Compositions and their use” (NESTEC S.A., priority 2015, dated 2022).
